Assay results reported in the NIST ThermoML archive (doi:10.1016/j.fluid.2017.03.021).

Details: 101.33 kPa, Liquid, Vibrating tube method

CCCCCC[n+]1ccn(C)c1.O=S(=O)([N-]S(=O)(=O)C(F)(F)F)C(F)(F)F
Details	mass density [kg/m3]
293.15 K	1377.1
298.15 K	1372.5
303.15 K	1367.8
308.15 K	1363.5
313.15 K	1358.7
318.15 K	1354.3
323.15 K	1349.6
328.15 K	1345.2
333.15 K	1340.5
338.15 K	1336.2
343.15 K	1331.6
